Laboratory results published in publication PMC7504215, “Copper(II) Complexes with Mixed Heterocycle Ligands as Promising Antibacterial and Antitumor Species” (Molecules, 2020).

Legend:
E. coli 25922 = experiment: MIC assay, liquid medium microdilution (planktonic growth); format: cell-based, Escherichia coli; details: E. coli 25922, 24 h at 37 °C
Protocol: (§1) The antibacterial assays were performed on Gram-negative (Escherichia coli ATCC 25922, E. coli 5, Pseudomonas aeruginosa ATCC 27853, P. aeruginosa ATCC 9027) and Gram-positive (Staphylococcus aureus ATCC 25923, S. aureus ATCC 6538, MRSA (Meticillin-resistant S. aureus) 388, ATCC, American Type Culture Collection) bacterial strains. Microbial suspensions (1.5 × 10^8 CFU/mL; colony forming units (CFU)) corresponding to 0.5 McFarland density obtained from 15 to 18-h bacterial cultures developed on solid media were used. The antimicrobial activity was tested on Mueller–Hinton agar medium.
The quantitative assay of the antimicrobial activity was performed by the liquid medium microdilution method, in 96-well multi-well plates, to establish the minimal inhibitory concentration (MIC). For this purpose, serial two-fold dilutions of the compounds ranging between 1.000 and 1.95 μg/mL were performed in a 200 μL volume of broth and each well was seeded with 50 μL microbial inoculums. Sterility control (wells containing only culture medium) and culture controls (wells containing culture medium seeded with the microbial inoculum) were used. The influence of the DMSO solvent was also quantified in a series of wells containing DMSO, diluted accordingly with the dilution scheme used for the complexes. The plates were incubated for 24 h at 37 °C, and MIC values were considered as the lowest concentration of the tested compound that inhibited the visible growth of the microbial overnight cultures.

MRSA = experiment: MBEC assay, micro-titer method (biofilm); format: cell-based, Staphylococcus aureus
Protocol: as §1
(§2) The assessment of the complexes’ influence on the microbial ability to colonize an inert substratum with the establishment of the minimal biofilm eradication concentration (MBEC) was performed by the micro-titer method, following previously described protocols. The absorbance at 490 nm was measured with an Apollo LB 911ELISA (Berthold Technologies GmbH & Co. KG, Waltham, MA, USA) reader. All experiments were performed in triplicates.

S. aureus 25923 = experiment: MBEC assay, micro-titer method (biofilm); format: cell-based, Staphylococcus aureus
Protocol: as §1, §2

S. aureus 6538 = experiment: MBEC assay, micro-titer method (biofilm); format: cell-based, Staphylococcus aureus
Protocol: as §1, §2

Row | Structure (SMILES) | MIC (E. coli 25922) [µM] | MBEC value (MRSA) [mM] | MBEC value (S. aureus 25923) [mM] | MBEC value (S. aureus 6538) [mM]
1 | Cc1cc(-c2ccccc2)nc2ncnn12.[Cu+2].[O-][Cl+3]([O-])([O-])[O-].[O-][Cl+3]([O-])([O-])[O-].c1cnc2c(c1)ccc1cccnc12.c1cnc2c(c1)ccc1cccnc12 [(2), [Cu(phen)2(pmtp)](ClO4)2] | 20 | 0.05 | 0.01 | 0.02
2 | Cc1cc(-c2ccccc2)nc2ncnn12.[Cu+2].[O-][Cl+3]([O-])([O-])[O-].[O-][Cl+3]([O-])([O-])[O-].c1ccc(-c2ccccn2)nc1.c1ccc(-c2ccccn2)nc1 [(1), [Cu(bpy)2(pmtp)](ClO4)2] | 200 | 0.40 | – | 0.10
